Values of other authors in publication PMC6247902 (Cancer immunology research, 2018).
pKd: −log10 of the molar value.

System: serum albumin
Conditions: read-out: affinity for serum albumin, KD

SMILES: Cc1c(C)c2c(c(C)c1O)CC[C@@](C)(CCC[C@H](C)CCC[C@H](C)CCCC(C)C)O2 [α-tocopherol]
- pKd: ~5.15
